{"source": "patent US20050014680A1", "about": "“Methods and compositions for enhancing neuron growth and survival” (priority 2003, published 2005)", "molecules": {"B1": {"name": "Sema3A: semaphorin 3-A, induces growth cone collapse (protein, UniProt Q14563 21-771, looked up)", "Semaphorin-3A": "NYQNGKNNVPRLKLSYKEMLESNNVITFNGLANSSSYHTFLLDEERSRLYVGAKDHIFSFDLVNIKDFQKIVWPVSYTRRDECKWAGKDILKECANFIKVLKAYNQTHLYACGTGAFHPICTYIEIGHHPEDNIFKLENSHFENGRGKSPYDPKLLTASLLIDGELYSGTAADFMGRDFAIFRTLGHHHPIRTEQHDSRWLNDPKFISAHLISESDNPEDDKVYFFFRENAIDGEHSGKATHARIGQICKNDFGGHRSLVNKWTTFLKARLICSVPGPNGIDTHFDELQDVFLMNFKDPKNPVVYGVFTTSSNIFKGSAVCMYSMSDVRRVFLGPYAHRDGPNYQWVPYQGRVPYPRPGTCPSKTFGGFDSTKDLPDDVITFARSHPAMYNPVFPMNNRPIVIKTDVNYQFTQIVVDRVDAEDGQYDVMFIGTDVGTVLKVVSIPKETWYDLEEVLLEEMTVFREPTAISAMELSTKQQQLYIGSTAGVAQLPLHRCDIYGKACAECCLARDPYCAWDGSACSRYFPTAKRRTRRQDIRNGDPLTHCSDLHHDNHHGHSPEERIIYGVENSSTFLECSPKSQRALVYWQFQRRNEERKEEIRVDDHIIRTDQGLLLRSLQQKDSGNYLCHAVEHGFIQTLLKVTLEVIDTEHLEELLHKDDDGDGSKTKEMSNSMTPSQKVWYRDFMQLINHPNLNTMDEFCEQVWKRDRKQRRQRPGHTPGNSNKWKHLQENKKGRNRRTHEFERAPRSV"}, "B2": {"name": "BDNF: recombinant BDNF (Gibco), a neurotrophin (protein, UniProt P23560 19-247, looked up)", "Neurotrophic factor BDNF …": "APMKEANIRGQGGLAYPGVRTHGTLESVNGPKAGSRGLTSLADTFEHVIEELLDEDQKVRPNEENNKDADLYTSRVMLSSQVPLEPPLLFLLEEYKNYLDAANMSMRVRRHSDPARRGELSVCDSISEWVTAADKKTAVDMSGGTVTVLEKVPVSKGQLKQYFYETKCNPMGYTKEGCRGIDKRHWNSQCRTTQSYVRALTMDSKKRIGWRFIRIDTSCVCTLTIKRGR"}}, "key": {"[1]": {"test_system": "dissociated E10.5 trigeminal neurons", "experiment": "Survival assay, Tunel staining of low-density dissociated E10.5 trigeminal neurons", "assay_type": "cell-based, mouse", "settings": "serum-free medium, 24 hr; 150 nM Kn252a; 100 ng/ml FK506, 1 μg/ml CsA", "excerpt": "Embryos were obtained from timed pregnancies with the noon of the plug date defined as […]. For whole-mount studies, embryos were processed and stained with anti-Neurofilament antibody (clone 2H3, DSHB) and processed for DAB or fluorescent staining. Sections were stained with anti-NF-M antibody, anti-TAG-1 antibody, anti-Lim1/2, anti-Pax7, anti-Nkx2.2, anti HNF-3b, anti-islet-1 (all from DSHB), Tuj-1 (ABR) and anti-TrkC (Chemicon). Secondary antibodies used were HRP conjugated goat anti-mouse antibody (Jackson Immunoresearch), Alexa-594 and Alexa-488 conjugated goat anti-mouse antibody (Molecular Probes) as well as anti-mouse and anti-rabbit ABC kits (Vector). Tunel assays were performed according to the manufacturer's recommendations (Roche).\nTrigeminal ganglia were incubated for 5 minutes at 37° C. with 10 mg/ml trypsin (Sigma)+DNAse (Sigma) in calcium- and magnesium-free (CMF) HBSS. After removal of the trypsin solution, the ganglia were washed 3 times with Hams F12 medium containing 10% heat-inactivated horse serum washed 3 times with CMF-HBSS and were gently triturated in 1 ml CMF-HBSS+DNAse with a fire-polished, siliconised Pasteur pipettes to give a single cell suspension. […]"}, "NFATc4": {"test_system": "NFATc4", "experiment": "Cytoplasmic-to-nuclear translocation of EGFP-NFATc4 in cortical neurons", "assay_type": "cell-based, mouse and rat", "protocol": "(§1) The reporter plasmid NFAT-Luciferase and the EGFP-NFATc4 plasmid have been described elsewhere (Graef et al., 1999). The TrkA constructs have been previously described (Ming et al., 1999). For luciferase assays the cells were treated 16 hrs after transfection with 100 ng/ml recombinant BDNF (Gibco) or 100 ng/ml recombinant NGF. For studies with FK506/CsA the cells were preincubated for 10 min with the inhibitors before stimulation and the inhibitors were present during the stimulation. Cells were lysed for luciferase assays 18 hrs after stimulation and luciferase assays performed according to standard protocols. For microscopy, neurons were fixed in 4% formaldehyde/PBS. Co-transfected m yc-epitope tagged Trk-A was visualized by staining with anti-myc antibody (clone 4E10, Pharmingen), followed by Alexa-594 conjugated goat anti-mouse antibody (Molecular Probes)."}, "[2]": {"test_system": "NFAT-dependent transcription", "experiment": "NFAT-luciferase reporter assay in cortical neurons", "assay_type": "cell-based, mouse and rat", "settings": "E15.5 cultured cortical neurons, 100 ng/ml, lysed 18 hrs after stimulation", "protocol": "as §1"}, "[3]": {"test_system": "trigeminal neuron growth cones", "experiment": "Growth cone morphology and collapse, trigeminal explant cubes stained with phalloidin", "assay_type": "cell-based, mouse", "settings": "c2/c3/c4 triple mutant ganglia or wild-type ganglia cultured with CsA and FK506, 30 min", "protocol": "E10.5 trigeminal explants were cultured in either collagen or matrigel (Becton-Dickinson) gels in the presence of NT-3 (Gibco) and NGF (Gibco) as previously described (O'Connor and Tessier-Lavigne, 1999). The explants were then fixed in 4% PFA/PBS and axons were visualized by wholemount immunostaining with the anti-NF-M antibody (O'Connor and Tessier-Lavigne, 1999). For cultures on laminin, eight-well chamber tissue culture slides were coated with poly-L-lysine followed by laminin. Trigeminal ganglia were either dissociated or cut into small cubes and cultured in medium supplemented with NT-3 and NGF. For assessing growth cone morphology cells were fixed with 25% sucrose in 4% PFA/PBS and stained with either Alexa 594-phalloidin (Molecular Probes) alone or plus anti-III β-tubulin antibody (Tuj-1, Covance)."}}}
{"molecule": "COC(=O)[C@@]1(O)C[C@H]2O[C@]1(C)n1c3ccccc3c3c4c(c5c6ccccc6n2c5c31)C(=O)NC4", "note": "[Kn252a]", "values": [{"measurement": "cell death (Tunel-positive cells)", "setting": "[1]", "result": "even greater degree of cell death"}]}
{"molecule": "NGF: recombinant NGF, nerve growth factor, a neurotrophin", "values": [{"measurement": "nuclear translocation of EGFP-NFATc4, no TrkA transfected", "setting": "NFATc4; E15.5 cortical neurons lacking TrkA (data not shown)", "result": "did not induce translocation"}, {"measurement": "nuclear translocation of EGFP-NFATc4, TrkA co-transfected", "setting": "NFATc4; cortical neurons co-transfected with EGFP-NFATc4 and TrkA, 100 ng/ml NGF", "result": "led to rapid translocation of EGFP-NFATc4 into the nucleus"}, {"measurement": "activation of NFAT-dependent transcription", "setting": "[2]", "result": "did not activate transcription from this reporter unless TrkA was introduced"}]}
{"molecule": "B1", "values": [{"measurement": "collapse of growth cones on matrigel", "setting": "[3]", "result": "induced efficient collapse of growth cones"}]}
{"molecule": "B2", "values": [{"measurement": "time to nuclear translocation of EGFP-tagged NFATc4", "setting": "NFATc4; E15.5 cortical neurons, 100 ng/ml BDNF", "result": "≤ 30", "unit": "min"}, {"measurement": "activation of NFAT-dependent transcription", "setting": "[2]", "result": "powerful activator of NFAT-dependent transcription"}]}
